Key:
Experiment in all cases: MIC, CLSI broth microdilution
Format in all cases: cell-based
[1] = test system: A. baumannii AABA1009 (Fluoroquinolone-resistant); conditions: Table 2
Summary of the method: (§1)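 Broth microdilution per CLSI M7-A7, with serial two-fold compound dilutions in Mueller Hinton Broth mixed 1:1 with inoculum. Colonies from a previous-day agar plate were suspended in saline to a final 5×10^5 CFU/mL. Plates were incubated 20 hours at 35° C. in ambient air.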

[2] = test system: A. baumannii AABA1020 (Fluoroquinolone-resistant); conditions: Table 3
Summary of the method: as §1

[3] = test system: A. baumannii AABA1065 (Fluoroquinolone-susceptible)
Summary of the method: as §1

[4] = test system: E. coli AECO001 (Fluoroquinolone susceptible, ATCC25922)
Summary of the method: as §1

[5] = test system: E. coli AECO002 (Fluoroquinolone susceptible); conditions: Table 3
Summary of the method: as §1

[6] = test system: E. coli AECO066 (Fluoroquinolone-resistant)
Summary of the method: as §1

[7] = test system: E. coli AECO086 (Fluoroquinolone-resistant); conditions: Table 3
Summary of the method: as §1

[8] = test system: P. aeruginosa APAE001 (Fluoroquinolone-susceptible, ATCC27853)
Summary of the method: as §1

[9] = test system: P. aeruginosa APAE002 (Fluoroquinolone susceptible); conditions: Table 3
Summary of the method: as §1

[10] = test system: P. aeruginosa APAE054 (Fluoroquinolone-resistant)
Summary of the method: as §1

[11] = test system: S. aureus ASAU001 (Fluoroquinolone-susceptible, ATCC29213)
Summary of the method: as §1

[12] = test system: S. aureus ASAU002 (Fluoroquinolone-susceptible, ATCC33591 (MRSA)); conditions: Table 3
Summary of the method: as §1

[13] = test system: S. aureus ASAU1031 (Fluoroquinolone-resistant)
Summary of the method: as §1

[14] = test system: S. aureus ASAU1033 (Fluoroquinolone-resistant); conditions: Table 3
Summary of the method: as §1

[15] = test system: S. pneumoniae ASPN001 (Fluoroquinolone-susceptible, ATCC49619)
Summary of the method: as §1

[16] = test system: S. pneumoniae ASPN002 (Fluoroquinolone-susceptible, ATCC10813); conditions: Table 3
Summary of the method: as §1

[17] = test system: S. pneumoniae ASPN1018 (Fluoroquinolone-resistant); conditions: Table 3
Summary of the method: as §1

[18] = test system: S. pneumoniae ASPN1027 (Fluoroquinolone-resistant)
Summary of the method: as §1

Structure (SMILES): N[C@H]1CCN2c3c(F)cc4c(=O)c(C(=O)O)cn(C5CC5)c4c3C=CC[C@H]12.O=C(O)C(F)(F)F [17/8, (7aR,8S)-8-Amino-4-cyclopropyl-12-fluoro-1-oxo-4,7,7a,8,9,10-hexahydro-1H-pyrrolo[1′,2′:1,7]azepino[2,3-h]quinoline-2-carboxylic acid trifluoroacetate]
- MIC AABA 1009 [1]: C (MIC's of greater than 8.0 μg/mL = C)
- MIC AABA1020 [2]: D (MIC's of greater than 8.0 μg/mL = D)
- MIC AABA 1065 ([3]; Table 2): A (MIC's of 1.0 μg/mL or less = A)
- MIC AABA 1065 ([3]; Table 3): A (MIC's of less than 1.0 = A)
- MIC AECO 001 ([4]; Table 2, 35° C., 20 hours): A (MIC's of 1.0 μg/mL or less = A)
- MIC AECO 001 ([4]; Table 3): A (MIC's of less than 1.0 = A)
- MIC AECO002 [5]: A (MIC's of less than 1.0 = A)
- MIC AECO 066 ([6]; Table 2): B (MIC's of greater than 1.0 μg/mL to 8.0 μg/mL = B)
- MIC AECO 066 ([6]; Table 3): C (MIC's of 2.0 μg/mL to 8.0 μg/mL = C)
- MIC AECO086 [7]: B (MIC's of 1.0 μg/mL to 2.0 μg/mL = B)
- MIC APAE 001 ([8]; Table 2): A (MIC's of 1.0 μg/mL or less = A)
- MIC APAE 001 ([8]; Table 3): A (MIC's of less than 1.0 = A)
- MIC APAE002 [9]: A (MIC's of less than 1.0 = A)
- MIC APAE 054 ([10]; Table 2): C (MIC's of greater than 8.0 μg/mL = C)
- MIC APAE 054 ([10]; Table 3): D (MIC's of greater than 8.0 μg/mL = D)
- MIC ASAU 001 ([11]; Table 2): A (MIC's of 1.0 μg/mL or less = A)
- MIC ASAU 001 ([11]; Table 3): A (MIC's of less than 1.0 = A)
- MIC ASAU002 [12]: A (MIC's of less than 1.0 = A)
- MIC ASAU 1031 ([13]; Table 2): B (MIC's of greater than 1.0 μg/mL to 8.0 μg/mL = B)
- MIC ASAU 1031 ([13]; Table 3): A (MIC's of less than 1.0 = A)
- MIC ASAU1033 [14]: C (MIC's of 2.0 μg/mL to 8.0 μg/mL = C)
- MIC ASPN 001 ([15]; Table 2): A (MIC's of 1.0 μg/mL or less = A)
- MIC ASPN 001 ([15]; Table 3): A (MIC's of less than 1.0 = A)
- MIC ASPN002 [16]: A (MIC's of less than 1.0 = A)
- MIC ASPN1018 [17]: B (MIC's of 1.0 μg/mL to 2.0 μg/mL = B)
- MIC ASPN 1027 ([18]; Table 2): B (MIC's of greater than 1.0 μg/mL to 8.0 μg/mL = B)
- MIC ASPN 1027 ([18]; Table 3): A (MIC's of less than 1.0 = A)
